Experiment [1] concerns the target T1, recombinant human 11beta-HSD1 (Homo sapiens, UniProt P28845).
T1 construct: Full length recombinant human 11β-HSD1 cDNAs and the cDNA encoding human 11β-HSD2 were expressed stably in HEK 293 EBNA cells; made in house
In words: 11β-HSD1 SPA enzyme assay (in vitro inhibition, human microsomes, 3H-cortisone). In kind it is biochemical. To be noted: microsomes from HEK 293 EBNA cells, 40 nM 3H-cortisone, 4 hrs room temperature. The protocol:
The in vitro inhibition of recombinant human 11beta-HSD1 was determined as follows.
[^3H]-Cortisone with a specific radioactivity of 50 Ci/mmol (ART 743, Lot: 050906) was from American Radiolabeled Chemicals, Inc. (St Louis, Mo.); monoclonal ab to Cortisol (P01-9294M-P, Lot: L-28) was from East Coast Bio., (North Berwick, Me.); Protein A-yttrium silicate, type-1, SPA bead NJ® (RPN-143) was from Amersham LifeSciences, (Piscataway, N.J.); 384 well-Optiplate384® (#6007299) was from PerkinElmer (Boston, Mass.); DPBS, pH 7.4 (14040) is from GIBCO, (Grand Island, N.Y.); carbenoxolone (C4790) is from Sigma, (St Louis, Mo.).
Full length recombinant human 11β-HSD1 cDNAs and the cDNA encoding human 11β-HSD2 were expressed stably in HEK 293 EBNA cells. Cells were grown in DMEM (high glucose) containing MEM non-essential amino acids, L-glutamine, hygromycin B (200 μg/ml), and G-418 (200 μg/ml) in the presence of 10% FBS.
Human 11β-HSD1 transfected HEK 293 EBNA cells were grown to 80% confluency and the cell pellet was quick frozen and stored at −80° C. before purification. Cell paste, 40 g from −80° C. storage, was thawed in water and then 100 ml of homogenization buffer H (0.01 M sodium phosphate pH 6.5 containing 0.25 M sucrose and protease inhibitor cocktail (Roche #1836145 1 tablet per 50 ml) were added to completely thaw the paste. The cell paste suspension was homogenized using a Polytron for 20 seconds to create a homogeneous mixture. Additional buffer H was added to a volume of 300 ml and cells were broken open using a N2-bomb (at 4° C.) in two batches by treating at 500 psi. The extract was centrifuged at 750×g for 30 min. The supernatant was centrifuged at 20,000×g for 30 min. The supernatant was further centrifuged at 105,000×g for 60 min. The 105,000×g pellet was resuspended in buffer H and centrifuged at 105,000×g for 60 min. The microsome pellet was scraped from the bottom of tube and resuspended in 0.01M phosphate buffer, pH 6.5 containing protease inhibitors (Roche #1836145, 1 tablet per 50 ml). Aliquots were stored at −80° C. until needed. The protein concentration was measured by the BioRad method using BSA standard.
Compounds were dissolved in DMSO to obtain 10 mM stock concentrations. From the 10 mM stock, the compounds were diluted in DMSO to achieve the concentrations.
11β-HSD1 SPA Enzyme Assay
11β-HSD1 was assayed by Scintillation Proximity assay in a 384-well Perkin Elmer white plate. The dose response of the compounds was determined using 11 half-log dilutions of compound in DMSO in duplicate. To each well, 0.5 μl of compound dilution in DMSO were added. 15 μl of assay buffer (for blanks) or 15 μl of human microsomes in assay buffer were added next and the plates were incubated for 10 min at room temperature. The final microsomal protein concentration was 1.1 μg/assay. Duplicates were in the same plate one row below the other. 10 μl of ^3H-cortisone (final concentration 40 nM) was added to each well and the plate was spun down to mix and bring down the contents to the bottom of the wells. The plates were incubated at room temperature with gentle shaking for 4 hrs. The reaction was stopped with addition of 10 μl of 10 mM carbenoxolone. Then, 0.5 mg of yttrium silicate SPA beads coupled to anti-cortisol antibody in 20 μl were added to all the wells of plate, which were spun down once more and incubated at room temperature overnight. The plate was read in a TopCount® (1 min/well). Data were uploaded automatically to Tool Set, a Lead Evaluation informatics program for data capture and calculation. Graphs were generated with the Curve Master program.

Experiment [2] deals with mildly overweight individuals with type 2 diabetes. To be noted: seven day study, versus placebo; cited from earlier work.

Counter-ions that a name gives are not always drawn.

As usually defined, the IC50 is the midpoint of a concentration-inhibition curve.

T1 sequence (P28845 whole entry): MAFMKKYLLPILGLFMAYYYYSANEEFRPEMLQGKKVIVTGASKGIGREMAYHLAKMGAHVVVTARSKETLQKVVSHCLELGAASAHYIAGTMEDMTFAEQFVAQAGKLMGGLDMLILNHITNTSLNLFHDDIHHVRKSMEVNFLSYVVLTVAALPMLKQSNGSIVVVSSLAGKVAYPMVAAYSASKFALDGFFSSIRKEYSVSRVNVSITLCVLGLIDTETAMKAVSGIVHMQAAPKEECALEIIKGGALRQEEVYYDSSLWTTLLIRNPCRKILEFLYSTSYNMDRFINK

`CC(C)(c1ccc(Cl)cc1)c1nnc2c(C3CC3)nccn12` [Example 1, 3-(2-(4-Chlorophenyl)propan-2-yl)-8-cyclopropyl-[1,2,4]triazolo[4,3-a]pyrazine]: in experiment [1], the IC50 amounted to 1.8 nM. Regarding `Clc1ccc(C2(c3nnc4nc(C5CC5)ccn34)CC2)cc1` [Example 3, 3-(1-(4-Chlorophenyl)cyclopropyl)-7-cyclopropyl-[1,2,4]triazolo[4,3-a]pyrimidine], the IC50 in experiment [1] came out at 453 nM.

With `FC(F)(F)Oc1ccccc1Oc1nccn2c(C3(c4ccc(Cl)cc4)CC3)nnc12` [Example 4, 8-(2-(Trifluoromethoxy)phenoxy)-3-(1-(4-chlorophenyl)cyclopropyl)-[1,2,4]triazolo[4,3-a]pyrazine], the concentration for half-maximal inhibition (IC50) in experiment [1] came to 0.5 nM.

Consider `Clc1ccc(C2(c3nnc4c(C5CC5)nccn34)CCC2)c(Cl)c1` [Example 6], for which the IC50 in experiment [1] turned out to be 0.6 nM.

As to `CC(C)(Oc1ccccc1)c1nnc2c(Cl)nccn12` [Example 16], the IC50 in experiment [1] came to 6030 nM. Still for that read-out and setting: the result for `C=CCCc1nccn2c(C3(c4ccc(Cl)cc4)CC3)nnc12` [Example 25] reads 1.3 nM.

For `OC12CCC(c3nnc4c(Oc5ccccc5Cl)nccn34)(CC1)C2` [Example 27], the IC50 in experiment [1] was determined as 336 nM. The same measure, in the same setting: next, `Clc1ccc(C2(c3nnc4c5sccc5ncn34)CC2)cc1` [Example 28, 3-(1-(4-Chlorophenyl)cyclopropyl)thieno[2,3-e][1,2,4]triazolo[4,3-c]pyrimidine]: 86 nM; `Clc1ccc(C2(c3nnc4c5c(cnn34)CCCC5)CC2)cc1` [Example 29, 3-(1-(4-Chlorophenyl)cyclopropyl)-7,8,9,10-tetrahydro-[1,2,4]-triazolo[3,4-a]phthalazine TFA Salt]: 12 nM; `CC(C)(O)c1nccn2c(C3(c4ccc(Cl)cc4)CC3)nnc12` [Example 35, 2-(3-(1-(4-Chlorophenyl)cyclopropyl)-[1,2,4]triazolo[4,3-a]pyrazin-8-yl)propan-2-ol TFA salt]: 7.9 nM. As to `CC(C)(O)c1ccnn2c(C3(c4ccc(Cl)cc4)CC3)nnc12` [Example 36, 2-(3-(1-(4-Chlorophenyl)cyclopropyl)-[1,2,4]-triazolo[4,3-b]pyridazin-8-yl)propan-2-ol], the IC50 in experiment [1] was 1.2 nM. Still for that read-out and setting: the result for `CC(C)(Oc1ccc(Cl)cc1Cl)c1nnc2c(C3CC3)nccn12` [Example 38] reads 1.8 nM; that for `CC(C)(c1ccc(F)cc1)c1nnc2c(Cl)nccn12` [Example 41], 5130 nM. For the compound `CC1(C)[C@@H](OC(=O)CCC(=O)O)CC[C@]2(C)[C@H]3C(=O)C=C4[C@@H]5C[C@@](C)(C(=O)O)CC[C@]5(C)CC[C@@]4(C)[C@]3(C)CC[C@@H]12` [carbenoxolone], the hepatic glucose production result in experiment [2] is recorded as “decrease in hepatic glucose production”.

Values taken from patent publication US8546394B2, “Substituted [1,2,4]triazolo[4,3-A]pyrazine 11-beta-hydroxysteroid dehydrogenase inhibitors” (Bristol-Myers Squibb Company, priority 2007, dated 2013).
